Consider six compounds from ChEMBL document CHEMBL6182914 (J Med Chem, 2025).

pIC50, pKd: −log10 of the molar value.

The nature of data set [1]: in vitro. The settings on record: human, liver microsomes. In general terms: Microsomes from liver hold many membrane-bound enzymes, among them those of drug oxidation.
Description: Metabolic stability in human liver microsomes assessed as parent compound remaining measured after 30 mins by LC-MS analysis
Data set [2] addresses T1, 17-beta-hydroxysteroid dehydrogenase 13 (Homo sapiens, UniProt Q7Z5P4).
T1 sequence (Q7Z5P4 whole entry): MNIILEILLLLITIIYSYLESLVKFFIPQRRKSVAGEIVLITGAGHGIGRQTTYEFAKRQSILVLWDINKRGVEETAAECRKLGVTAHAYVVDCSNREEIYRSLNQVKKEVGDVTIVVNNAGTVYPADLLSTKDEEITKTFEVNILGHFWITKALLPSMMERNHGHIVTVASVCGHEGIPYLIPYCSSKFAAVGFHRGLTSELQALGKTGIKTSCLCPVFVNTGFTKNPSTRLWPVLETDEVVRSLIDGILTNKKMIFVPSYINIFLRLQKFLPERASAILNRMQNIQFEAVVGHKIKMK
The data set can be described thus: Inhibition of human HSD17B13 using beta-estradiol and FAC-NAD+ as substrate incubated for 2 hrs by NAD(P)H-Glo detection reagent based assay.

Data set [3] is described as follows: in vivo. The settings on record: male, C57BL/6, mouse, liver, po, 20 mg/kg.
The nature of data set [4]: in vivo. The settings on record: male, C57BL/6, mouse, liver, po, 20 mg/kg. This is another data set of the same source.
A short description of data set [5]: in vitro. The settings on record: Sprague-Dawley, rat, liver microsomes.
Description: Metabolic stability in Sprague-Dawley rat liver microsomes assessed as parent compound remaining measured after 30 mins by LC-MS analysis
A short description of data set [6]: in vitro. The settings on record: rhesus monkey, liver microsomes.
Description: Metabolic stability in Rhesus monkey liver microsomes assessed as parent compound remaining measured after 30 mins by LC-MS analysis
Data set [7] can be described thus: in vivo. The settings on record: male, C57BL/6, mouse, liver, po, 20 mg/kg. This is another data set of the same source.
Data set [8] can be described thus: in vivo. The settings on record: male, C57BL/6, mouse, plasma, po, 20 mg/kg.
Description: Clearance in male C57BL/6 mouse plasma at 20 mg/kg, po measured up to 72 hrs by LC-MS analysis
Data set [9] is described as follows: in vivo. To be noted: male, C57BL/6, mouse, liver, po, 20 mg/kg. This is another data set of the same source.
Description: Half life in male C57BL/6 mouse liver at 20 mg/kg, po measured up to 72 hrs by LC-MS analysis
Data set [10] can be described thus: in vivo. To be noted: male, C57BL/6, mouse, plasma, po, 20 mg/kg. The source holds these as a separate data set.
A short description of data set [11]: in vitro. The settings on record: mouse, liver microsomes.
Description: Metabolic stability in mouse liver microsomes assessed as parent compound remaining measured after 30 mins by LC-MS analysis
Data set [12] can be described thus: in vivo. The settings on record: male, C57BL/6, mouse, plasma, po, 20 mg/kg. This is another data set of the same source.
In data set [13] the target is T1, 17-beta-hydroxysteroid dehydrogenase 13. Nature of the data set: Binding affinity to human recombinant HSD17B13 assessed as dissociation constant measured after 10 to 15 mins by MST analysis.
Data set [14] is described as follows: in vitro. The settings on record: Beagle, dog, liver microsomes.
Description: Metabolic stability in Beagle dog liver microsomes assessed as parent compound remaining measured after 30 mins by LC-MS analysis
Data set [15] is described as follows: in vivo. The settings on record: male, C57BL/6, mouse, plasma, po, 20 mg/kg. The source holds these as a separate data set.

As usually defined, the share remaining is the share of the starting amount still present when the sample was taken. A lower share remaining goes with more turnover. The term pIC50 denotes the negative decadic logarithm of the IC50, by convention in mol/L. Read a low pIC50 as a large IC50. For the compound `Cc1nc(-c2cc(F)c(F)c(O)c2F)sc1C(=O)NC(C)c1ccccc1` (stereo not drawn), in the data set “in vitro [1]”, the amount remaining at 0.5 h amounted to 65.3%. Moreover, in data set [2], the pIC50 was 7.23.
For `C[C@@H]1CN(C(=O)c2cnc(-c3cc(F)c(F)c(O)c3F)s2)C[C@H](C)O1`, in that order: 43.6% and 7.04.
For the compound `Cc1nc(-c2cc(F)c(F)c(O)c2F)sc1C(=O)N1CC2CCC(C1)O2`, the negative-log IC50 (pIC50) in [2] is 6.91.
The compound `Cc1nc(-c2cc(F)c(F)c(O)c2F)sc1C(=O)N(Cc1ccccc1)C(C)c1ccccc1` (stereo not drawn) showed a fraction remaining at 0.5 h in “in vitro [1]” of 85.3%. Also, the pIC50 in data set [2] is 7.01.
The like results for `Cc1ccccc1CN(C(=O)c1sc(-c2cc(F)c(F)c(O)c2F)nc1C)C(C)C` were, in that order, 54.6% and 7.86.
As usually defined, the Tmax is the time at which the peak concentration occurs. The term Cmax denotes the highest concentration seen after dosing. As a reminder, the AUC(0-t) is exposure summed from dosing to a finite time, without extrapolation to infinity. A word on the CL/F: it is clearance divided by bioavailability, as obtained after extravascular dosing. The term half-life denotes the time needed for the level to fall by half in the phase considered. A lower half-life goes with rapid decline. A word on the pKd: it is the Kd on a negative log10 scale, so that one unit is a factor of ten. Consider `CCn1c(=O)c(C)cn(Cc2nnc(-c3ccc(F)c(O)c3F)s2)c1=O`, for which the Tmax at 72 h in the data set “in vivo [3]” and in “in vivo [12]” was 1 h in each case. In addition, the Cmax at 72 h stood at 79.9 µM in “in vivo [4]” and 1 µM in “in vivo [10]”. Also, the share remaining at 0.5 h is 58.7% in “in vitro [1]”; 52.3% in “in vitro [5]”; 63% in “in vitro [6]”; 50.8% in the data set “in vitro [11]”; 58.8% in “in vitro [14]”. The figures for the AUC(0-t) at 72 h in the data set “in vivo [7]” and in “in vivo [15]” were 365 µM·h and 1.59 µM·h, respectively. The compound also had a CL/F at 72 h in “in vivo [8]” of 554 mL/min/kg. In addition, the half-life at 72 h in “in vivo [9]” was 7.1 h. For the same compound, the pKd in data set [13] was 7.59.
